According to US20150147350A1, “Method Of Treating Cancer With MEGEA3 Immunotherapeutic With BRAF Inhibitor And/Or MEK Inhibitor” (GlaxoSmithKline LLC, priority 2011, published 2015):

System: systemic immunity
Test: Peripheral blood immune-monitoring in cancer patients treated with BRAF inhibitor
Experimental: 13 patients with tumors carrying a BRAF mutation who underwent treatment with GSK2118436 (the compound of formula (I)), a V600 mutant BRAF specific inhibitor were studied to assess effects of mutant BRAF inhibition on systemic immunity. Peripheral blood immune-monitoring was carried out before and following one or two 28-day cycles of treatment.

CC(C)(C)c1nc(-c2cccc(NS(=O)(=O)c3c(F)cccc3F)c2F)c(-c2ccnc(N)n2)s1 [GSK2118436, N-{3-[5-(2-Amino-4-pyrimidinyl)-2-(1,1-dimethylethyl)-1,3-thiazol-4-yl]-2-fluorophenyl}-2,6-difluorobenzenesulfonamide]
impact on most immune parameters tested (serum cytokine levels, peripheral blood cell counts, leukocyte subset frequencies, memory CD4+ and CD8+ T-cell recall responses) (13 patients, before and following one or two 28-day cycles of treatment): no detectable impact | serum TNF-α over the course of treatment (13 patients, one or two 28-day cycles of treatment): slight increase | negative impact on existing systemic immunity or the de novo generation of tumor-specific T cells (patients, conclusion of the study): no detectable negative impact | circulating tumor antigen-specific CD8+ T cells (three of the four human leukocyte antigen-A2-positive patients, following BRAF(V600) inhibitor therapy): modest increase
